PubChem BioAssay (NCI)
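At the GI50, growth is halved. TGI is the concentration that stops growth completely.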

Tests used:
Test in all cases: growth of human tumour cells (NCI), 384-well format
[1] = test system: COLO 205 colon
[2] = test system: UACC-62 melanoma
[3] = test system: 786-0 renal
[4] = test system: CCRF-CEM leukemia
[5] = test system: EKVX NSCLC
[6] = test system: IGROV1 ovarian
[7] = test system: SF-539 CNS
[8] = test system: SN12C renal
[9] = test system: SNB-75 CNS
[10] = test system: TK-10 renal
[11] = test system: SK-OV-3 ovarian
[12] = test system: MCF7 breast
[13] = test system: M14 melanoma
[14] = test system: A549 NSCLC
[15] = test system: OVCAR-5 ovarian
[16] = test system: NCI-H522 lung
[17] = test system: T-47D breast
[18] = test system: SK-MEL-28 melanoma
[19] = test system: NCI-H322M lung
[20] = test system: MALME-3M melanoma
[21] = test system: BT-549 breast
[22] = test system: SF-295 CNS
[23] = test system: NCI-H460 NSCLC
[24] = test system: SNB-19 CNS
[25] = test system: ACHN renal
[26] = test system: HCC-2998 colon
[27] = test system: RPMI-8226 leukemia
[28] = test system: HCT-15 colon
[29] = test system: PC-3 prostate
[30] = test system: CAKI-1 renal

Compound `C#CC(F)(F)[C@]1(O)CC[C@H]2[C@@H]3CCC4=CC(=O)CCC4=C3[C@@H](c3ccc(C4CC4)cc3)C[C@@]21C` has a TGI [1] of 4.58 µM, a GI50 [2] of 0.0176 µM and a TGI [2] of 0.0328 µM. The GI50 [3] was 0.0107 µM, the TGI [3] was 0.024 µM and the GI50 [4] was < 0.01 µM. For the same compound, the TGI [4] was < 0.01 µM, the GI50 [5] was < 0.01 µM and the TGI [5] was 0.0109 µM. For the same compound, the GI50 [6] was < 0.01 µM, the TGI [6] was < 0.01 µM and the GI50 [7] was 0.0172 µM. It also gave a TGI [7] of 0.032 µM, a GI50 [8] of 2.01 µM and a TGI [8] of 4.06 µM. For the same compound, the GI50 [9] was 0.0142 µM, the TGI [9] was 0.0282 µM and the GI50 [10] was 0.0214 µM. The TGI [10] was 0.104 µM, the GI50 [11] was 0.0342 µM and the TGI [11] was 0.111 µM. It also gave a GI50 [12] of 1.48 µM, a TGI [12] of 7.97 µM and a GI50 [13] of 0.0376 µM. It also gave a TGI [13] of 0.146 µM, a GI50 [14] of 0.0395 µM and a TGI [14] of 0.19 µM. For the same compound, the GI50 [15] was 0.574 µM, the TGI [15] was 2.41 µM and the GI50 [16] was < 0.01 µM. For the same compound, the TGI [16] was < 0.01 µM, the GI50 [17] was 0.0806 µM and the TGI [17] was 1.77 µM. The GI50 [18] was 2.03 µM, the TGI [18] was 4.34 µM and the GI50 [19] was 2.48 µM. For the same compound, the TGI [19] was 6.89 µM, the GI50 [20] was < 0.01 µM and the TGI [20] was < 0.01 µM. For the same compound, the GI50 [21] was 0.0203 µM, the TGI [21] was 0.0422 µM and the GI50 [22] was 0.0302 µM. It also gave a TGI [22] of 0.0834 µM, a GI50 [23] of 1.85 µM and a TGI [23] of 3.41 µM. The GI50 [24] was 3.02 µM, the TGI [24] was 8.61 µM and the GI50 [25] was < 0.01 µM. The TGI [25] was < 0.01 µM, the GI50 [26] was 0.0239 µM and the TGI [26] was 0.0507 µM. For the same compound, the GI50 [27] was < 0.01 µM, the TGI [27] was 0.0186 µM and the GI50 [28] was 0.245 µM. For the same compound, the TGI [28] was 2.3 µM, the GI50 [29] was 0.0196 µM and the TGI [29] was 0.0518 µM. For the same compound, the GI50 [30] was < 0.01 µM and the TGI [30] was < 0.01 µM.
